Test results from ChEMBL document CHEMBL5523684, “Development of a tetrahydroindazolone-based HDAC6 inhibitor with in-vivo anti-arthritic activity” (Bioorg Med Chem, 2024).
The source made the active and inactive calls. No cut-off for these calls is given here.

Legend:
[1] = AUClast in mouse at 50 mg/kg, po; assay type: ADME, organism-based; details: in vivo
[2] = AUC (0 to infinity) in monkey at 0.5 mg/kg, iv; assay type: ADME, organism-based, Macaca mulatta; details: rhesus monkey, in vivo
[3] = Half life in monkey at 0.5 mg/kg, iv; assay type: ADME, organism-based, Macaca mulatta; details: rhesus monkey, in vivo
Rattus norvegicus [4] = assay: Antiarthritic activity against adjuvant-induced arthritis Lewis rat model assessed as improvement in arthritis symptoms at 50 mg/kg, po measured after 8 days; assay type: functional; details: time 8 day
[5] = AUC (0 to infinity) in mouse at 10 mg/kg, iv; assay type: ADME, organism-based; details: in vivo
[6] = Half life in mouse at 50 mg/kg, po; assay type: ADME, organism-based; details: in vivo
[7] = Clearance in monkey at 0.5 mg/kg, iv; assay type: ADME, organism-based, Macaca mulatta; details: rhesus monkey, in vivo
[8] = Half life in dog at 5 mg/kg, po; assay type: ADME, organism-based, Canis lupus familiaris; details: in vivo
Mus musculus [9] = assay: Antiarthritic activity against collagen-induced arthritis DBA1J mouse model assessed as improvement in arthritis symptoms at 30 mg/kg, sc measured after 21 days; assay type: functional; details: time 21 day
[10] = Cmax in mouse at 50 mg/kg, po; assay type: ADME, organism-based; details: in vivo
[11] = Bioavailability in dog at 0.5 mg/kg, iv; assay type: ADME, organism-based, Canis lupus familiaris; details: in vivo
Mus musculus [12] = assay: Antiarthritic activity against collagen-induced arthritis DBA1J mouse model assessed as improvement in arthritis symptoms at 15 mg/kg, sc measured after 21 days; assay type: functional; details: time 21 day
[13] = Tmax in monkey at 10 mg/kg, po; assay type: ADME, organism-based, Macaca mulatta; details: rhesus monkey, in vivo
Rattus norvegicus [14] = assay: Antiarthritic activity against adjuvant-induced arthritis Lewis rat model at 50 mg/kg, po measured after 8 days; assay type: functional, organism-based; details: time 8.0 day
[15] = Half life in mouse at 10 mg/kg, iv; assay type: ADME, organism-based; details: in vivo
[16] = molecular target: T1, Protein deacetylase HDAC6 (Homo sapiens) (UniProt Q9UBN7); assay: Inhibition of HDAC6 in human HH cells assessed as induction of acetylated H3 accumulation upto 10 uM by Western blot analysis; assay type: cell-based
T1 sequence (whole entry): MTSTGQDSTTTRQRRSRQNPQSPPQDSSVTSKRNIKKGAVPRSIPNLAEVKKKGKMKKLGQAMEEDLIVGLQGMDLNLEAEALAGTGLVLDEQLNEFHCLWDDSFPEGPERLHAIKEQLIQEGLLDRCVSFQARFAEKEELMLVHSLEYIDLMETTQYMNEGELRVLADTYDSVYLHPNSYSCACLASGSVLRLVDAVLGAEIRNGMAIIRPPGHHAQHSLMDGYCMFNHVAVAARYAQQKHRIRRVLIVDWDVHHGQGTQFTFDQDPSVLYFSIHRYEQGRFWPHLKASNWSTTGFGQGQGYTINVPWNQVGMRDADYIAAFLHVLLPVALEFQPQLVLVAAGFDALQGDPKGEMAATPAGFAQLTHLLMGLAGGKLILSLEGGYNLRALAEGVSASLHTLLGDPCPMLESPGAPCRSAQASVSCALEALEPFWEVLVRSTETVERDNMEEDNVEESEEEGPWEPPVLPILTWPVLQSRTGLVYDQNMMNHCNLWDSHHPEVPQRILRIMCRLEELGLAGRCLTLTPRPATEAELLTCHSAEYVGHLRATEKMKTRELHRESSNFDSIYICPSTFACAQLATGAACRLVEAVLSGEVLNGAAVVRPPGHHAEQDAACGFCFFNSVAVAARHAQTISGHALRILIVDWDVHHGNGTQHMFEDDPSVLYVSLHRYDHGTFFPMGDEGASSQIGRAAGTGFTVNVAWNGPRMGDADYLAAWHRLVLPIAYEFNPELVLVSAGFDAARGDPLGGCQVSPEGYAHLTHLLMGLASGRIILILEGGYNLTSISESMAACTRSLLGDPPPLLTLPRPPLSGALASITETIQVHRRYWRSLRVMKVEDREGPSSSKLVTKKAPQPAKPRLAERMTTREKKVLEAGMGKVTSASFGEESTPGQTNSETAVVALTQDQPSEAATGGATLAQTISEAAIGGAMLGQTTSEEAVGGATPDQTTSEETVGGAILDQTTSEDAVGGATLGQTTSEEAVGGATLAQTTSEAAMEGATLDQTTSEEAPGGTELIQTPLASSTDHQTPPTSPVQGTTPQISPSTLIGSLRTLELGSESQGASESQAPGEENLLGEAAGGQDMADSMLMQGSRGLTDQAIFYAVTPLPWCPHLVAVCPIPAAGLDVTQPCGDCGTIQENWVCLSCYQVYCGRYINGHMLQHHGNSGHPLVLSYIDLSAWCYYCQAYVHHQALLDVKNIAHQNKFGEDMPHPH

[17] = AUClast in monkey at 10 mg/kg, po; assay type: ADME, organism-based, Macaca mulatta; details: rhesus monkey, in vivo
[18] = AUC (0 to infinity) in mouse at 50 mg/kg, po; assay type: ADME, organism-based; details: in vivo
[19] = Tmax in dog at 5 mg/kg, po; assay type: ADME, organism-based, Canis lupus familiaris; details: in vivo
[20] = Tmax in mouse at 50 mg/kg, po; assay type: ADME, organism-based; details: in vivo
[21] = molecular target: T1, Protein deacetylase HDAC6 (Homo sapiens); assay: Inhibition of HDAC6 in human HH cells assessed as induction of acetylated H4 accumulation upto 10 uM by Western blot analysis; assay type: cell-based
[22] = AUC (0 to infinity) in monkey at 10 mg/kg, po; assay type: ADME, organism-based, Macaca mulatta; details: rhesus monkey, in vivo
Rattus norvegicus [23] = assay: Antiarthritic activity against adjuvant-induced arthritis Lewis rat model assessed as improvement in arthritis symptoms at 50 mg/kg, po measured after 8 days in presence of methotrexate; assay type: functional; details: time 8 day
[24] = AUC (0 to infinity) in dog at 0.5 mg/kg, iv; assay type: ADME, organism-based, Canis lupus familiaris; details: in vivo
[25] = AUClast in dog at 5 mg/kg, po; assay type: ADME, organism-based, Canis lupus familiaris; details: in vivo
[26] = AUC (0 to infinity) in dog at 5 mg/kg, po; assay type: ADME, organism-based, Canis lupus familiaris; details: in vivo
[27] = AUClast in dog at 0.5 mg/kg, iv; assay type: ADME, organism-based, Canis lupus familiaris; details: in vivo
[28] = AUClast in monkey at 0.5 mg/kg, iv; assay type: ADME, organism-based, Macaca mulatta; details: rhesus monkey, in vivo
Mus musculus [29] = assay: Antiarthritic activity against collagen-induced arthritis DBA1J mouse model at 15 to 30 mg/kg, sc measured after 21 days; assay type: functional, organism-based; details: dose lower […], dose upper 30.0 mg/kg, time 21.0 day
[30] = Cmax in dog at 5 mg/kg, po; assay type: ADME, organism-based, Canis lupus familiaris; details: in vivo
[31] = C0 in mouse at 10 mg/kg, iv; assay type: ADME, organism-based; details: in vivo
[32] = Half life in dog at 0.5 mg/kg, iv; assay type: ADME, organism-based, Canis lupus familiaris; details: in vivo
[33] = molecular target: T2, Protein deacetylase HDAC6 (Homo sapiens, UniProt Q9UBN7); assay: Inhibition of N-terminal GST-tagged human recombinant HDAC6 expressed in Spodoptera frugiperda incubated for 60 mins by fluorescence based analysis
T2 sequence (Q9UBN7 whole entry): T1 sequence (whole entry)

Histone deacetylase 5 = Histone deacetylase 5 (Homo sapiens, UniProt Q9UQL6); assay: Inhibition of human recombinant HDAC5 using Boc-Lys(tri-fluoroacetyl)-AMC as substrate by fluorescence based analysis
Chain of Histone deacetylase 5 (Q9UQL6 whole entry): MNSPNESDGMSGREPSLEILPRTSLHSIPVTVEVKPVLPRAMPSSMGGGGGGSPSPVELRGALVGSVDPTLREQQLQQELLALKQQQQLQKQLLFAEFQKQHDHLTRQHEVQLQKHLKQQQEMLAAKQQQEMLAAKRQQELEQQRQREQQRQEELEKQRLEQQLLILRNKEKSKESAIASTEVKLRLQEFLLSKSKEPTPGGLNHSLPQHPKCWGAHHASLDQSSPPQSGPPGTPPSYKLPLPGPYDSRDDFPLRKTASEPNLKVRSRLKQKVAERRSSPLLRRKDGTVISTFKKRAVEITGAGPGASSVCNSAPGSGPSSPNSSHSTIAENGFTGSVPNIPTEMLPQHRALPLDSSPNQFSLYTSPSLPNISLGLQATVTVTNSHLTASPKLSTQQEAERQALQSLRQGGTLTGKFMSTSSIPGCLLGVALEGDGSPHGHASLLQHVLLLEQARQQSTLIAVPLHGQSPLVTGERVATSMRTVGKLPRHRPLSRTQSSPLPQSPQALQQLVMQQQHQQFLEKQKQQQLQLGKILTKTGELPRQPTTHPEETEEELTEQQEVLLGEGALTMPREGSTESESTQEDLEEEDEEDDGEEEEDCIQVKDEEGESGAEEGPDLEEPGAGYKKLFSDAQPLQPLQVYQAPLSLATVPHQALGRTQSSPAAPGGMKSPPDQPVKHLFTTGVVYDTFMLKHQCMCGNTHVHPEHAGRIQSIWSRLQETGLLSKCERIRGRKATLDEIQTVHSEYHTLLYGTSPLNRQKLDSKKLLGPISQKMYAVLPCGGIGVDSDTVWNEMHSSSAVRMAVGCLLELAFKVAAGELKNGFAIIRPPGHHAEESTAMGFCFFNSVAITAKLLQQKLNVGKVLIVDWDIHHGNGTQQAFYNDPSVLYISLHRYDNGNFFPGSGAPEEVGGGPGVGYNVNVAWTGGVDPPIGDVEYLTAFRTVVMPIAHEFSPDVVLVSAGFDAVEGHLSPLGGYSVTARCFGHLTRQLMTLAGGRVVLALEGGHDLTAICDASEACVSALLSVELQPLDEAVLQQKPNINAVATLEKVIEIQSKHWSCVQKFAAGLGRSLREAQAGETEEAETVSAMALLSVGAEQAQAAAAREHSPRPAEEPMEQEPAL

Histone deacetylase 4 = Histone deacetylase 4 (Homo sapiens, UniProt P56524); assay: Inhibition of human recombinant HDAC4 using Boc-Lys(tri-fluoroacetyl)-AMC as substrate by fluorescence based analysis
Chain of Histone deacetylase 4 (P56524 whole entry, the tested form may be a part): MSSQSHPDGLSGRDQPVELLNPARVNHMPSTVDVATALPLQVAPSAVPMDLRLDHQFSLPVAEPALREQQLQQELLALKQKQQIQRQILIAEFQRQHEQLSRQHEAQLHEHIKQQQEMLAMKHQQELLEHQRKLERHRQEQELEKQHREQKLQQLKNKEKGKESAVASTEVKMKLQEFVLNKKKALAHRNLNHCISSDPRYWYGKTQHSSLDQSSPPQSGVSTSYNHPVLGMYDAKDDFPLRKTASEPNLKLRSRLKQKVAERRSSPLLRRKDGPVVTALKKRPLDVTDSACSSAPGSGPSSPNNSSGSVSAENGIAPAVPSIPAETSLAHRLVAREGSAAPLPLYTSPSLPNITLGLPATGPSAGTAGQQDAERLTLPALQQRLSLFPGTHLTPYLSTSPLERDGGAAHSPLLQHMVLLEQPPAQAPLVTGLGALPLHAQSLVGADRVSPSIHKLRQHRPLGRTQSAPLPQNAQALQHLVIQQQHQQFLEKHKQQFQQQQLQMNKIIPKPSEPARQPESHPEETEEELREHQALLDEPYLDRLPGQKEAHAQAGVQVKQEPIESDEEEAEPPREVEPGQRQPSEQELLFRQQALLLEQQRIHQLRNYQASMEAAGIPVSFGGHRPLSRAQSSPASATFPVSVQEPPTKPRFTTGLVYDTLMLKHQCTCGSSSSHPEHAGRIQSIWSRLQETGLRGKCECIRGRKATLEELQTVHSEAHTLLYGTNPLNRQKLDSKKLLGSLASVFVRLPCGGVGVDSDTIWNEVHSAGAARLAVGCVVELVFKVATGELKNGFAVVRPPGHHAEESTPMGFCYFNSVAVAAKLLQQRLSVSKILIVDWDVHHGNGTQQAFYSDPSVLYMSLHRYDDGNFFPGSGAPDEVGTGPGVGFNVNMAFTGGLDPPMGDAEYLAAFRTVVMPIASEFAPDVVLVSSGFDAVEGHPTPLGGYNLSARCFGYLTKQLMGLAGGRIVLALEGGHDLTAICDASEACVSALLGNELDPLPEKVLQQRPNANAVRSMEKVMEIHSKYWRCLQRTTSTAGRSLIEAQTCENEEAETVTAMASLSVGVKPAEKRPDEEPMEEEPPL

[34] = molecular target: T2, Protein deacetylase HDAC6; assay: Inhibition of human recombinant HDAC6 using fluorescent peptide p53 (379 to 382 residues) RHKK(Ac) as substrate by fluorescence based analysis

Molecule `CC1(C)CC(=O)c2c(C(F)(F)F)nn(Cc3ccc(C(=O)NO)cc3)c2C1` has an AUC(0-t) [1] of 1140 ng·h/mL, an AUC [2] of 302 ng·h/mL and a half-life [3] of 18.6 min. The Activity (Rattus norvegicus [4]) was 59.6%, the AUC(0-inf) [5] was 1210 ng·h/mL and the half-life [6] was 83.4 min. It also gave a CL [7] of 3.34 L/h/kg, a half-life [8] of 84 min and an Activity (Mus musculus [9]) of 65%. For the same molecule, the Cmax [10] was 2080 ng/mL, the bioavailability [11] was 25.1% and the Activity (Mus musculus [12]) was 53%. For the same molecule, the Tmax [13] was 2 h, the Activity (Rattus norvegicus [14]) was “Active” and the half-life [15] was 17.4 min. For the same molecule, the inhibition [16] was “inactive”, the AUC(0-t) [17] was 332 ng·h/mL and the AUC(0-inf) [18] was 1150 ng·h/mL. For the same molecule, the Tmax [19] was 24 min, the Tmax [20] was 4.98 min and the inhibition [21] was “inactive”. It also gave an AUC(0-inf) [22] of 339 ng·h/mL, an Activity (Rattus norvegicus [23]) of 97.9% and an AUC(0-inf) [24] of 458 ng·h/mL. It also gave an AUC(0-t) [25] of 1090 ng·h/mL, an AUC(0-inf) [26] of 1150 ng·h/mL and an AUC(0-t) [27] of 446 ng·h/mL. For the same molecule, the AUC(0-t) [28] was 299 ng·h/mL, the Activity (Mus musculus [29]) was “Active” and the Cmax [30] was 1030 ng/mL. For the same molecule, the C0 [31] was 4290 ng/mL and the half-life [32] was 36 min.

For `O=C(NO)c1ccc(Cn2c3c(c4ccccc42)C(=O)CCC3)cc1`, the IC50 [33] was 16 nM, the IC50 (Histone deacetylase 5) was > 20 µM and the IC50 (Histone deacetylase 4) was > 20 µM. It also gave an IC50 [34] of 35 nM.
